# Data taken from patent US8673586B2, “Compounds that interact with kinases” (Alchemia Limited, priority 2002, dated 2014).
# Like-named read-outs stand apart in the source and are kept apart here.
# Experiments:
# [1] = target: T1, KIT (Homo sapiens, UniProt P10721); test: KIT kinase assay, 33P-ATP incorporation, residual activity; format: biochemical
# T1 construct: made in house
# Protocol: (§1) Compounds were tested in vitro as follows.
# (§2) Recombinant protein kinases, which were expressed as fusion proteins in SF9 insect cells or E. coli, were used for all in vitro assays. The purity and identity of each kinase was checked by SDS-PAGE/silver staining and by western blot analysis with specific antibodies.
# (§3) All kinase assays except for p38a (see below) were performed in 96-well micro-titre plates. The assay components included assay buffer, ATP, test compound, enzyme and substrate.
# (§4) The assay for all enzymes (except for the PKC see below, contained 60 mM HEPES-NaOH, pH 7.5, 3 mM MgCl2, 3 mM MnCl2, 3 μM Na-orthovanadate, 1 mM […], 0.1 μM [γ-^33P]-ATP (approx. 5×10^5 cpm per well).
# (§5) The reaction cocktails were incubated at 30° C. for 80 minutes. The reaction was stopped with 50 μl of 2% (v/v) H3PO4, plates were aspirated and washed twice with 200 μl of H2O or 0.9% (w/v) NaCl. Incorporation of ^33Pi was determined with a microplate scintillation counter.
# (§6) All data is presented as residual activity, which is the activity of the enzyme in the presence of the stipulated concentration of inhibitor or compound. 100% activity is the maximum activity of the enzyme in the absence of any inhibitor or compound.
# (§7) In all experiments the Z′ value was calculated according to Zhang et al to (J-H Zhang, T. D. Y Chung, K. R. Oldenburg (1999) Journal of Biomolecular Screening 4:67-73) using the standard deviations and mean values of the positive and negative controls. Z′=1−(3*Stdevneg+3*Stdevpos)/(Meanpos−Meanneg)
# (§8) Only data where the Z′ value was >0.5 was used.
# [2] = target: T2, TIE2 (Homo sapiens, UniProt Q02763); test: TIE2 kinase assay, 33P-ATP incorporation, residual activity; format: biochemical
# T2 construct: made in house
# Protocol: as §1, §2, §3, §4, §5, §6, §7, §8
# [3] = target: T3, MET (Homo sapiens, UniProt P08581); test: MET kinase assay, 33P-ATP incorporation, residual activity; format: biochemical; design: key: % residual kinase activity (100% = no inhibitor); details: tested at 25 micromolar
# T3 construct: made in house
# Protocol: as §1, §2, §3, §4, §5, §6, §7, §8
# [4] = target: CDK2/CycA (Homo sapiens, UniProt P24941); test: CDK2/CycA kinase assay, 33P-ATP incorporation, residual activity; format: biochemical; details: tested at 25 micromolar
# Protocol: as §1, §2, §3, §4, §5, §6, §7, §8
# [5] = target: ABL (Homo sapiens, UniProt P00519); test: ABL kinase assay, 33P-ATP incorporation, residual activity; format: biochemical; details: tested at 25 micromolar
# Protocol: as §1, §2, §3, §4, §5, §6, §7, §8
# [6] = target: EGF-R (Homo sapiens, UniProt P00533); test: EGF-R kinase assay, 33P-ATP incorporation, residual activity; format: biochemical; details: tested at 25 micromolar
# Protocol: as §1, §2, §3, §4, §5, §6, §7, §8
# [7] = target: PKC-beta1 (Homo sapiens, UniProt P05771); test: PKC-beta1 kinase assay, 33P-ATP incorporation, residual activity; format: biochemical; details: tested at 25 micromolar
# Protocol: as §1, §2, §3
# The assay for the PKCs contained 60 mM HEPES-NaOH, pH 7.5, 1 mM EDTA, 1.25 mM EGTA, 5 mM MgCl2, 1.32 mM CaCl2, 5 μg/ml Phosphatidylserine, 1 μg/ml 1.2 Dioleyl-glycerol, 1.2 mM DTT, 50 μg/ml PEG20000, 0.1 μM [γ-^33P]-ATP (approx. 5×10^5 cpm per well).
# as §5, §6, §7, §8
# [8] = target: T4, VEGF-R2 (Homo sapiens, UniProt P35968); test: VEGF-R2 kinase assay, 33P-ATP incorporation, residual activity; format: biochemical; design: key: % residual kinase activity (100% = no inhibitor)
# T4 construct: made in house
# Protocol: as §1, §2, §3, §4, §5, §6, §7, §8
# [9] = target: T5, PDGF-Ralpha (Homo sapiens, UniProt P16234); test: PDGF-Ralpha kinase assay, 33P-ATP incorporation, residual activity; format: biochemical; details: tested at 25 micromolar
# T5 construct: made in house
# Protocol: as §1, §2, §3, §4, §5, §6, §7, §8
# [10] = target: MKK1 (Homo sapiens, UniProt Q02750); details: inhibitor concentration 10 μM; cited from earlier work
# [11] = target: CDK2 (Homo sapiens, UniProt P24941); details: inhibitor concentration 10 μM; cited from earlier work
# [12] = target: SAPK2a (Homo sapiens, UniProt Q16539); details: inhibitor concentration 10 μM; cited from earlier work
# [13] = test system: CK1; details: inhibitor concentration 10 μM; cited from earlier work
# [14] = target: mitogen-activated protein kinase p38α (Homo sapiens, UniProt Q16539); test: p38α assay, NanoCarrier 2080 format, fluorescence polarization (2D-FIDA anisotropy); format: biochemical
# Protocol: as §1, §2
# The mitogen-activated protein kinase p38α assays were done in a proprietary microassay NanoCarrier™ 2080 format. In these assays phosphorylation was detected by a phospho-substrate specific monoclonal antibody in an indirect competition assay. The degree of binding of the antibody to the phospho-substrate was measured by fluorescence polarization using 2D-FIDA anisotrophy. In these experiments the final concentration of the enzyme was 1.6 nM and the substrate was 2 μM.
# as §6, §7, §8
# [15] = target: PKCα (Homo sapiens, UniProt P17252); details: inhibitor concentration 1 μM; cited from earlier work
# [16] = target: S6K1 (Homo sapiens, UniProt P23443); details: cited from earlier work
# [17] = target: MSK-1 (Homo sapiens, UniProt O75582); details: cited from earlier work
# [18] = target: GSK3β (Homo sapiens, UniProt P49841); details: inhibitor concentration 1 μM; cited from earlier work
# [19] = target: MAPKAPK1b (Homo sapiens, UniProt P51812); details: inhibitor concentration 1 μM; cited from earlier work
# [20] = target: PRK2 (Homo sapiens, UniProt Q16513); details: inhibitor concentration 20 μM; cited from earlier work
# [21] = compounds marked !: tested at 2.5 micromolar
# Chain of PKC-beta1 (P05771 whole entry): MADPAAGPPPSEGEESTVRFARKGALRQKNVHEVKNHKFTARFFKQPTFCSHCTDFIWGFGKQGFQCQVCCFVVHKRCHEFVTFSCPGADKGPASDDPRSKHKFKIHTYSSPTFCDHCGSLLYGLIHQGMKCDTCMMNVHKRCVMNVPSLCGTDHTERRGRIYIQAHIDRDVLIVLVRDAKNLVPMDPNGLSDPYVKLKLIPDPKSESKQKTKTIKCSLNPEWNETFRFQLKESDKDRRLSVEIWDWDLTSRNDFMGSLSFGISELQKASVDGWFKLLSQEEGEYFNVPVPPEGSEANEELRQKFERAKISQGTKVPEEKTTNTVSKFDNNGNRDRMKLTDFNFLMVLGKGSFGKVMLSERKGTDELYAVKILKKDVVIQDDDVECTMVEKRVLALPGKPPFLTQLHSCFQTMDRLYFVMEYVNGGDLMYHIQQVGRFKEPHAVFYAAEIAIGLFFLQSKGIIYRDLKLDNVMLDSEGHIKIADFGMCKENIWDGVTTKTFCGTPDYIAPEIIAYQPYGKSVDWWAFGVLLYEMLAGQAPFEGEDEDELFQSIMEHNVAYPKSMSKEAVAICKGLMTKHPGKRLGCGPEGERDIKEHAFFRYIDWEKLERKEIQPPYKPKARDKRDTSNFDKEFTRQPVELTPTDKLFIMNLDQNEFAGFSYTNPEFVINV
# T2 sequence (Q02763 23-1124, species assumed): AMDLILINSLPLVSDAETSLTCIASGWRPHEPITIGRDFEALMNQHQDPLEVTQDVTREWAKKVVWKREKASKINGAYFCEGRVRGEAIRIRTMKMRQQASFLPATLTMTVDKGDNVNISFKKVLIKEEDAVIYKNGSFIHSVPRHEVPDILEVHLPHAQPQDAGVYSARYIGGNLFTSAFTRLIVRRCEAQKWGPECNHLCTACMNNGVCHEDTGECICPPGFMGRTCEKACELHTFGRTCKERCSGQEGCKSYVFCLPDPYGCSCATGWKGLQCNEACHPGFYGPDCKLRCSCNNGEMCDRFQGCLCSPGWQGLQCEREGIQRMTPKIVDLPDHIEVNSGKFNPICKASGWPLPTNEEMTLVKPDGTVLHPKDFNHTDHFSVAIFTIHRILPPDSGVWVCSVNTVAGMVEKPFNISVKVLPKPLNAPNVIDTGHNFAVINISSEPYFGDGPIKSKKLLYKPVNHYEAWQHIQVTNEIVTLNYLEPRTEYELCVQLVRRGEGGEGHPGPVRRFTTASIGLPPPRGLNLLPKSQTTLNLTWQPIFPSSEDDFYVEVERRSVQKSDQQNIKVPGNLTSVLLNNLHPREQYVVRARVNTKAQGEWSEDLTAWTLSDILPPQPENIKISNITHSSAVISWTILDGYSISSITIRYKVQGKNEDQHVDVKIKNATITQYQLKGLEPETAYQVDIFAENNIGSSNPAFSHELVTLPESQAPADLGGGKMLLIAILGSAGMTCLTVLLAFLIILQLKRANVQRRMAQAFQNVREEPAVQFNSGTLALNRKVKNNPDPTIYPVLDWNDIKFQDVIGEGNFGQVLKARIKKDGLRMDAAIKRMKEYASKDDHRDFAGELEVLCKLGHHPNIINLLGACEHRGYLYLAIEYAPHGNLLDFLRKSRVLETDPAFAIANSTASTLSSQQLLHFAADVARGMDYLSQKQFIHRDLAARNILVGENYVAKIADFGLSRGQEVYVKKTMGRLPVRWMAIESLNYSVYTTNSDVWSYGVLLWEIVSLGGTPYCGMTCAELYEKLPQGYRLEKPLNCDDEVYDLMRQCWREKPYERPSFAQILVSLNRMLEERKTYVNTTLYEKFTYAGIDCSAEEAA
# Chain of ABL (P00519 whole entry, species assumed): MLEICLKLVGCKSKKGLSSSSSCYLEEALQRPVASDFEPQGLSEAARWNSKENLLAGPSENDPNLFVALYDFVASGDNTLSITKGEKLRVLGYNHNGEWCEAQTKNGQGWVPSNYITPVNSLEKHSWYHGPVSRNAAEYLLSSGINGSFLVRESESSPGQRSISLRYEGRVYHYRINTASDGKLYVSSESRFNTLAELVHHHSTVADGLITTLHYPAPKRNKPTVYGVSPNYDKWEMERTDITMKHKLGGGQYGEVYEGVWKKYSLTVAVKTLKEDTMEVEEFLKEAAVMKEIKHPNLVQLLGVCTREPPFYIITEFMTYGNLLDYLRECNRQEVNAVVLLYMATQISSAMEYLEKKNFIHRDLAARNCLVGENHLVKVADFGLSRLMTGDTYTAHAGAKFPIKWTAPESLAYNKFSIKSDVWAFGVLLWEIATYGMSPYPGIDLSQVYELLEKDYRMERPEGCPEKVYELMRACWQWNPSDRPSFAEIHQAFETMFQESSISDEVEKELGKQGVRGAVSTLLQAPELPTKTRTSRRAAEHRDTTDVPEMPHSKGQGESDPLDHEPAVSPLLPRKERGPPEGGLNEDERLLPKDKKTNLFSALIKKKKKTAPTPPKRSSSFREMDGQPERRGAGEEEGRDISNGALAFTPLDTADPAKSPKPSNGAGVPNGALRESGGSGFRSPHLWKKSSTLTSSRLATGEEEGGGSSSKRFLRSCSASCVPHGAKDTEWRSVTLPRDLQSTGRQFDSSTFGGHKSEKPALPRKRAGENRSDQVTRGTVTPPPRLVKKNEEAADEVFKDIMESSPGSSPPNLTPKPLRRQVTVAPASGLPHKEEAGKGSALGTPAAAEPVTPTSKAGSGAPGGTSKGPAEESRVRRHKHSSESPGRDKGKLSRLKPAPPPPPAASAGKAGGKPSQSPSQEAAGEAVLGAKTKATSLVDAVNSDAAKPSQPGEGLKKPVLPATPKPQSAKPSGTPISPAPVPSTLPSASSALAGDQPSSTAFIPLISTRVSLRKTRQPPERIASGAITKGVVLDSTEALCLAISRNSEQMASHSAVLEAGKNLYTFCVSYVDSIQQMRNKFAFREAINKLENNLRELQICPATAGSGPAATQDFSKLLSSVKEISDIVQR
# T4 sequence (P35968 20-1356): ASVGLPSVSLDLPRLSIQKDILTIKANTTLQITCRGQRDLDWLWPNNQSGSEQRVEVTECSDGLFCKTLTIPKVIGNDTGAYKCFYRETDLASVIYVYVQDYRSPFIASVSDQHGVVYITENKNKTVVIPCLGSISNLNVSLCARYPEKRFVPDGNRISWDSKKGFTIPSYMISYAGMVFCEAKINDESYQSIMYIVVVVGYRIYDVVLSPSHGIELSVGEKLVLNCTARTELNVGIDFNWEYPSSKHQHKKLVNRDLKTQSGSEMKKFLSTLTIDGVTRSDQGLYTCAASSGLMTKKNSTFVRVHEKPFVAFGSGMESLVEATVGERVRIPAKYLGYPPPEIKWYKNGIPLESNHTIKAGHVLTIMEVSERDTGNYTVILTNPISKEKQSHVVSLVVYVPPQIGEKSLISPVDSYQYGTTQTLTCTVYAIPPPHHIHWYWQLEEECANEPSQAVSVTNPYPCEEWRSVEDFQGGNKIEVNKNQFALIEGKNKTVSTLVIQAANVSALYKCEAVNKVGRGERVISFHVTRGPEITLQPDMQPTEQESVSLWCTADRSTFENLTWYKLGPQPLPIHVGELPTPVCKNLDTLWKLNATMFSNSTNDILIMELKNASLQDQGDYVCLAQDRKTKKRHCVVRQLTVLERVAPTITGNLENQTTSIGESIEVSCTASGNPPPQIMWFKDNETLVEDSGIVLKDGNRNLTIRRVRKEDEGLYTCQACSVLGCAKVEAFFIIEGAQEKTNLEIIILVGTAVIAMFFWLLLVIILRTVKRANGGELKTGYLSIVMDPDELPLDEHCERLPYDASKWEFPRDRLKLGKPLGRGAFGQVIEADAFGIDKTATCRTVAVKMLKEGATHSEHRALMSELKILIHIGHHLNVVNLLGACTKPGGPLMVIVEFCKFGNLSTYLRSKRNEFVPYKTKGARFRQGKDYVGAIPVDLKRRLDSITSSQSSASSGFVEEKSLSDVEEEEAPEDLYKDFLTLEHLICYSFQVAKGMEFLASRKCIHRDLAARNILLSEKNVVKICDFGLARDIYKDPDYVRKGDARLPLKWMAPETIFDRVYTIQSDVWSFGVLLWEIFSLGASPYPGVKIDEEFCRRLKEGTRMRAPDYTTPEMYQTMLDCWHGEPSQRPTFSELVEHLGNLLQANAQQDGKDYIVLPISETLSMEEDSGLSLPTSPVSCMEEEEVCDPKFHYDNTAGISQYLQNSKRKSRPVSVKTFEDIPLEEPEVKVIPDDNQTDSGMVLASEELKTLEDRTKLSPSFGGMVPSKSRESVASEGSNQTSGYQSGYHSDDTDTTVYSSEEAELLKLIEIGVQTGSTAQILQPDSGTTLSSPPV
# Chain of mitogen-activated protein kinase p38α (Q16539 whole entry, species assumed): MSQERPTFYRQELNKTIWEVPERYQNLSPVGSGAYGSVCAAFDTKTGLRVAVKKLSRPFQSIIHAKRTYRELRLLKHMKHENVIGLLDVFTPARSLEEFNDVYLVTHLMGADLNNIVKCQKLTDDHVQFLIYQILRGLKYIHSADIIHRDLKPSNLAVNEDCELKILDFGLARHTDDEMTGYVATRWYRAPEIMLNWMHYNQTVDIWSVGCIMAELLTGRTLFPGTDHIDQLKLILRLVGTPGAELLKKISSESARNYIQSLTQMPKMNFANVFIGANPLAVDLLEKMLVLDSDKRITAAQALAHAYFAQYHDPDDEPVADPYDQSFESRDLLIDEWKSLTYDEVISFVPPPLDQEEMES
# Chain of GSK3β (P49841 whole entry, species assumed): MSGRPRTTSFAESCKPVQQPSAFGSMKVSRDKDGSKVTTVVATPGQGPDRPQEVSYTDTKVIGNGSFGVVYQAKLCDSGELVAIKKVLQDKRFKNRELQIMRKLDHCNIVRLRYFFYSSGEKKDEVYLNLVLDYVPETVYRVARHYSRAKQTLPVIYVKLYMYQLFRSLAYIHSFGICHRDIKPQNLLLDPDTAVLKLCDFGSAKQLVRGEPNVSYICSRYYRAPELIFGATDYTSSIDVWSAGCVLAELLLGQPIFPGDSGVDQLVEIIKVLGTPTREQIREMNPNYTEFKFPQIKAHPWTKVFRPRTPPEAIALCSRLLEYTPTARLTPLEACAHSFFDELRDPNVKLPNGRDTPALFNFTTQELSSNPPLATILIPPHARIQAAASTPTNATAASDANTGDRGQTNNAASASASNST
# Chain of SAPK2a (Q16539 whole entry, species assumed): as the sequence (Q16539 whole entry, species assumed) above
compound,measurement,setting,value
CCCCCCCCOc1ccc(-c2nc3c(NC)ncnc3n2C[C@H]2O[C@@H](n3nnc(C(N)=O)c3-c3ccccc3)[C@H](O)[C@@H]2O)cc1 [compound 725],c-Kit,[1]; [21],6
same,Tie2,[2]; [21],10
CCCCCCCCOc1ccc(-c2nc3cc(C(N)=O)ccc3n2C[C@H]2O[C@@H](n3nnc(C(N)=O)c3-c3ccccc3)[C@H](O)[C@@H]2O)cc1 [compound 279],MET,[3],72
same,CDK2,[4],20
same,ABL,[5],6
same,EGF-R,[6],66
same,c-Kit,[1]; tested at 25 micromolar,17
same,PKC,[7],80
same,VEGF,[8]; tested at 25 micromolar,31
same,Tie2,[2]; tested at 25 micromolar,12
same,PDGFalpha,[9],85
CC(C)(C)n1nc(-c2ccc(Cl)cc2)c2c(N)ncnc21 [PP2],residual activity MKK1,[10],55%
same,residual activity CDK2,[11],3%
same,residual activity SAPK2a,[12],21%
same,residual activity CK1,[13],6%
Nc1ncnc2c1ncn2[C@@H]1O[C@H](CN2C(=O)C(Cc3ccccc3)N(Cc3ccccc3Sc3ccc(Cl)cc3)C2=O)[C@@H](O)[C@H]1O (some centres unmarked) [compound 604],MET,[3],46
same,CDK2,[4],30
same,ABL,[5],49
same,EGF-R,[6],27
same,c-Kit,[1]; tested at 25 micromolar,13
same,PKC,[7],50
same,VEGF,[8]; tested at 25 micromolar,18
same,P38,[14]; tested at 25 micromolar,100
same,Tie2,[2]; tested at 25 micromolar,3
same,PDGFalpha,[9],46
Cc1cccc(CSc2nc3cc(C(N)=O)ccc3n2C[C@H]2O[C@@H](n3cnc4c(N)ncnc43)[C@H](O)[C@@H]2O)c1 [compound 100],MET,[3],88
same,CDK2,[4],70
same,ABL,[5],109
same,EGF-R,[6],69
same,c-Kit,[1]; tested at 25 micromolar,52
same,PKC,[7],80
same,VEGF,[8]; tested at 25 micromolar,58
same,Tie2,[2]; tested at 25 micromolar,42
same,PDGFalpha,[9],106
Ro-31-8220,residual activity PKCα,[15],3%
same,residual activity S6K1,[16]; inhibitor concentration 1 μM,6%
same,residual activity MSK1,[17]; inhibitor concentration 1 μM,2%
same,residual activity GSK3β,[18],5%
same,residual activity MAPKAPK1b,[19],2%
NC(=O)c1nnn([C@@H]2O[C@H](Cn3c(-c4ccc(OCc5ccccc5)cc4)nc4cc(Cl)c(Cl)cc43)[C@@H](O)[C@H]2O)c1-c1ccccc1 [compound 668],c-Kit,[1]; [21],16
same,Tie2,[2]; [21],1
CCCCCCCCSc1nc2cc(C(N)=O)ccc2n1C[C@H]1O[C@@H](n2nnc(C(N)=O)c2-c2ccccc2)[C@H](O)[C@@H]1O [compound 146],MET,[3],78
same,CDK2,[4],270
same,ABL,[5],115
same,EGF-R,[6],94
same,c-Kit,[1]; tested at 25 micromolar,53
same,PKC,[7],142
same,VEGF,[8]; tested at 25 micromolar,101
same,Tie2,[2]; tested at 25 micromolar,71
same,PDGFalpha,[9],127
O=S(=O)(c1cccc2cnccc12)N1CCCNCC1 [HA1077],residual activity PRK2,[20],15%
same,residual activity S6K1,[16]; inhibitor concentration 20 μM,32%
same,residual activity MSK1,[17]; inhibitor concentration 20 μM,19%
CCn1c2ccccc2c2ccc(CN3C(=O)N(C[C@H]4O[C@@H](n5nnc(C(N)=O)c5-c5ccccc5)[C@H](O)[C@@H]4O)C(=O)C3Cc3ccccc3)cc21 (some centres unmarked) [compound 246],MET,[3],27
same,CDK2,[4],26
same,ABL,[5],30
same,EGF-R,[6],15
same,c-Kit,[1]; tested at 25 micromolar,6
same,PKC,[7],13
same,VEGF,[8]; tested at 25 micromolar,8
same,Tie2,[2]; tested at 25 micromolar,−1
same,PDGFalpha,[9],28
Nc1ncnc2c1ncn2[C@@H]1O[C@H](Cn2c(-c3ccc(OCc4ccccc4)cc3)nc3ccccc32)[C@@H](O)[C@H]1O [compound 912],MET,[3],88
same,CDK2,[4],119
same,ABL,[5],96
same,EGF-R,[6],88
same,c-Kit,[1]; tested at 25 micromolar,38
same,PKC,[7],96
same,VEGF,[8]; tested at 25 micromolar,44
same,P38,[14]; tested at 25 micromolar,70
same,Tie2,[2]; tested at 25 micromolar,72
same,PDGFalpha,[9],96
COc1ccc(-c2c(C(N)=O)nnn2[C@@H]2O[C@H](Cn3c(-c4ccc(OCc5ccccc5)cc4)nc4cc(Cl)c(Cl)cc43)[C@@H](O)[C@H]2O)cc1 [compound 670],c-Kit,[1]; [21],9
same,VEGF,[8]; [21],23
same,Tie2,[2]; [21],1
CCCc1c(C(N)=O)nnn1[C@@H]1O[C@H](Cn2c(-c3ccc(F)c(C(F)(F)F)c3)nc3cc(C(N)=O)ccc32)[C@@H](O)[C@H]1O [compound 456],MET,[3],103
same,CDK2,[4],28
same,ABL,[5],107
same,EGF-R,[6],96
same,c-Kit,[1]; tested at 25 micromolar,92
same,PKC,[7],104
same,VEGF,[8]; tested at 25 micromolar,96
same,Tie2,[2]; tested at 25 micromolar,91
same,PDGFalpha,[9],113
Nc1ncnc2c1ncn2[C@@H]1O[C@H](CN2C(=O)C(Cc3ccccc3)N(Cc3ccccc3[N+](=O)[O-])C2=O)[C@@H](O)[C@H]1O (some centres unmarked) [compound 212],MET,[3],46
same,CDK2,[4],25
same,ABL,[5],41
same,EGF-R,[6],23
same,c-Kit,[1]; tested at 25 micromolar,12
same,PKC,[7],26
same,VEGF,[8]; tested at 25 micromolar,10
same,Tie2,[2]; tested at 25 micromolar,1
same,PDGFalpha,[9],38
Nc1ncnc2c1ncn2[C@@H]1O[C@H](CN2C(=O)C(Cc3ccccc3)N(Cc3cccs3)C2=O)[C@@H](O)[C@H]1O (some centres unmarked) [compound 605],MET,[3],54
same,CDK2,[4],26
same,ABL,[5],55
same,EGF-R,[6],20
same,c-Kit,[1]; tested at 25 micromolar,18
same,PKC,[7],27
same,VEGF,[8]; tested at 25 micromolar,14
same,P38,[14]; tested at 25 micromolar,100
same,Tie2,[2]; tested at 25 micromolar,5
same,PDGFalpha,[9],56
NC(=O)c1nnn([C@@H]2O[C@H](Cn3c(-c4ccc(OCc5ccccc5)cc4)nc4cc(Cl)c(Cl)cc43)[C@@H](O)[C@H]2O)c1-c1ccc(Cl)cc1 [compound 669],c-Kit,[1]; [21],11
same,VEGF,[8]; [21],34
same,P38,[14]; [21],97
same,Tie2,[2]; [21],1
CCCc1c(C(N)=O)nnn1[C@@H]1O[C@H](CNCc2nc3cc(C(N)=O)ccc3n2-c2ccc(-c3ccccc3)cc2)[C@@H](O)[C@H]1O [compound 345],MET,[3],87
same,CDK2,[4],67
same,ABL,[5],74
same,EGF-R,[6],58
same,c-Kit,[1]; tested at 25 micromolar,40
same,PKC,[7],65
same,VEGF,[8]; tested at 25 micromolar,54
same,Tie2,[2]; tested at 25 micromolar,41
same,PDGFalpha,[9],82
Nc1ncnc2c1ncn2[C@@H]1O[C@H](CN2C(=O)C(Cc3ccccc3)N(Cc3cccn3S(=O)(=O)c3ccccc3)C2=O)[C@@H](O)[C@H]1O (some centres unmarked) [compound 223],MET,[3],31
same,CDK2,[4],40
same,ABL,[5],24
same,EGF-R,[6],22
same,c-Kit,[1]; tested at 25 micromolar,109
same,PKC,[7],10
same,VEGF,[8]; tested at 25 micromolar,11
same,Tie2,[2]; tested at 25 micromolar,0
same,PDGFalpha,[9],17
